Data reported in publication PMC6145916, “Interaction of mitochondrial fission factor with dynamin related protein 1 governs physiological mitochondrial function in vivo” (Scientific Reports, 2018).
Where no end group is shown, it is not given here.

What was measured:
wild-type mice = assay: ATP content in brain tissue; type: in vivo, mouse; details: 3 mg/Kg/day, subcutaneous osmotic pump, 8 weeks, WT mice; n = 4 mice, 2 replicates
From the text: (§1) (a) Quantification of mitochondrial Drp1 content relative to ALDH2 (a mitochondrial matrix enzyme) in the mitochondrial fraction isolated from total brain lysate of wild-type mice (Western blot shown in Fig. S3B) (n = 4 mice). (b) ATP content in brain tissue of wild-type mice (n = 4 mice, 2 replicates). (c) Representative transmission electron microscopy images of the striatum from wild-type mice. […] The first principal component represents 42% of the variation. (f) Local linear embedding dimensionality reduction and visualization of all behaviors collected weekly from TAT- (black) or P259- (purple) treated WT and TAT- (white) treated R6/2 mice over the course of 8 weeks. […] All behavior and survival tests were conducted by an experienced observer who was blinded to the treatment groups. Data are mean ± s.e.
Five-week old R6/2 HD mice and their wild-type littermates (a total of 60 mice) were implanted subcutaneously with a 28-d Alzet osmotic pump with either P259-TAT or TAT control peptide (15 mice per group) to be delivered continuously at a rate of 3 mg/Kg/day, as previously described. All mice were implanted twice for a total of an 8-week treatment. 20 of the WT mice were implanted 3 times for a total of a 12-week treatment at 3 mg/Kg/day. […]
To quantify mitochondrial motility, the images at time 0 and 150 seconds w ere overlaid. […]

Drp1 = assay: Mitochondrial Drp1 content in brain of wild-type mice; type: in vivo, mouse; details: 3 mg/Kg/day, subcutaneous osmotic pump, 8-week treatment, WT mice; Drp1 relative to ALDH2; n = 4 mice
From the text: as §1
Five-week old R6/2 HD mice and their wild-type littermates (a total of 60 mice) were implanted subcutaneously with a 28-d Alzet osmotic pump with either P259-TAT or TAT control peptide (15 mice per group) to be delivered continuously at a rate of 3 mg/Kg/day, as previously described. […]
The effect of peptides on GTPase activity of Drp1 was measured by incubating recombinant Drp1 […]
for 1 hour at 37 °C. GTPase activity was measured using a colorimetric GTPase assay kit (Novus Biologicals, CO, USA) as instructed by the manufacturer. […]

In the case of “YGRKKRRQRRRGSGIIQLPEIVVV-NH2 (C-terminus assumed) [P259]”, the “decrease in ATP levels in the brain” value (wild-type mice) is reported as 30% and the “reduction of mitochondrial Drp1 association (brain)” value (Drp1) is reported as ~ 80%.
